Results as given in patent publication US20230381275A1, “MUSCULAR FUNCTION IMPROVING AGENT FOR SKELETAL MUSCLE OF WHICH FUNCTION IS DEGRADED DUE TO AGING” (OSAKA UNIVERSITY, priority 2020, published 2023).

Experiments:
Type in all cases: in vivo
[1] = system: aging-accelerated model mice (SAMP10); assay: Number of collisions during treadmill running, weekly test (Example 1); details: after 30 weeks of age (tested to 35 weeks), SV peptide 20 ng/ml injected into bilateral lower limb muscles after treadmill training, vs PBS control group, FIG. 1
Description: In this example, a peptide consisting of the amino acid sequence of SVVYGLR (SEQ ID No.: 1) (SV peptide) was administered to aging-accelerated model mice, and their effects on restoring muscle function were confirmed.
SV peptide was synthesized by the Fmoc method using a multi-species solid-phase automated peptide synthesizer (PSSM-8; Shimadzu Corp.) SV peptide was added to PBS and adjusted to 20 ng/ml to prepare an injection formulation.
Aging-accelerated model mice (SAMP10 21 weeks old) were used to perform training on a treadmill (MK-680; Muromachi Kikai Co., Ltd.) and subsequent SV peptide administration according to the schedule in the following table. […]
Once a week, the mice were tested on a treadmill to measure the number of collisions. After SV peptide injection, the mice have trained on the treadmill again (18 m/min×90 min), and the number of times the mice collided with the treadmill wall due to being unable to run at a speed equal to or faster than that of the belt was measured during treadmill training. […] In the control group, after training on the treadmill in the same manner as the experimental group, PBS was injected into the bilateral lower limb muscles instead of SV peptide, and the number of collisions was measured once a week.

[2] = system: aging-accelerated model mice (SAMP10); assay: Number of collisions on treadmill retest 12, 24 or 72 hours after local injection (Example 2); details: SAMP10 36 weeks old, SV peptide total 40 ng into bilateral lower limb muscles, vs PBS control, FIG. 2
Description: In this example, SV peptide was administered to aging-accelerated model mice, and the recovery effect of muscle function after a certain period of time by the administration was confirmed.
Treadmill running was performed using aging-accelerated model mice (SAMP10 36 weeks old) under the same conditions as the first basic training of 35-week-old mice in Example 1, and SV peptide (total 40 ng) was injected into the bilateral lower limb muscles immediately after treadmill running (experimental group).
SV peptide was administered at the same site and dose as in the 35-week-old mice of Example 1. The number of collisions was evaluated by retesting treadmill running (18 m/min×90 min) at 12, 24, or 72 hours after local injection. In the control group, after treadmill running as in the experimental group, PBS was injected into the bilateral leg muscles instead of SV peptide, and the number of collisions on the treadmill was measured 12, 24, or 72 hours after the injection.

[3] = system: aging-accelerated model mice (SAMP10); assay: Endurance evaluation test on treadmill, mean running distance (Example 4)
Description: In this example, we evaluated exercise in aging-accelerated model mice when SV peptide was administered continuously.
(§1) Aging-accelerated model mice (SAMP10 28 weeks old) were trained on a treadmill (MK-680; Muromachi Kikai Co., Ltd.) (18 m/min×90 min) and subsequent SV peptide administration was performed according to the schedule in the following table. After 30 weeks of age, training was performed continuously from Monday to Friday of each week. SV peptides were added to PBS to adjust to a concentration of 1 μg/ml or 20 ng/ml for injection formulation. Localized injections were made into the bilateral leg muscles of each mouse anesthetized by inhalation with sevoflurane immediately after training on Tuesday and Friday (SV group). Exercise evaluations were performed after SV peptide localization on Friday.
Exercise evaluations were conducted for endurance evaluation, in which the belt speed on the treadmill was increased incrementally at regular intervals, and for slope-up evaluation, in which the belt incline was increased incrementally at regular intervals. […] In the PBS group as the control group, PBS was localized to the bilateral lower limb muscles instead of SV peptide after training on the treadmill in the same manner as in the SV group.
The results of the endurance evaluation test are shown in FIG. 5 as a graph of the percent change in mean running distance. […] The mean running distance for each group was calculated as the mean value of running distance calculated based on the running time and speed of each mouse in each group (the mean distance was calculated in the same manner hereinafter). […] In the SVN group (SVN group) in which SV peptide was administered at the same site and at the same dose as in the SV group without training on the treadmill, the rate of change in mean running distance was measured.

[4] = system: aging-accelerated model mice (SAMP10); assay: Exercise evaluation on treadmill, mean workload (Example 4); details: SV-treated group (training and SV peptide) relative to PBS group; FIG. 6
Description: as §1
Exercise evaluations were conducted for endurance evaluation, in which the belt speed on the treadmill was increased incrementally at regular intervals, and for slope-up evaluation, in which the belt incline was increased incrementally at regular intervals. […]
The mean workload was calculated as the mean value of workload calculated by multiplying body weight, running time, slope (grade), running speed, and gravitational acceleration g(9.8 m/s^2) for each mouse in each group by […].

[5] = system: aging-accelerated model mice; assay: Endurance evaluation test on treadmill (Example 7)
Description: In this example, the number of SV peptide doses and dosage in Example 4 were changed as shown in the following table, and exercise evaluation (endurance evaluation) was performed when SV peptide was continuously administered to aging-accelerated model mice. The conditions other than the number of SV peptide doses and dosage were the same as in Example 4.
Specifically, SV peptide was added to PBS to adjust to a concentration of 20 μg/ml for the injectable formulation, and localized to the bilateral lower limb muscles of each mouse anesthetized by inhalation with sevoflurane immediately after training once every 4 weeks (Friday) (SV group; once every 4 weeks).
The results of the endurance evaluation test are shown in FIG. 14 with a graph showing the mean running distance for the SV group (n=6) and the PBS group (n=6). In addition, graphs showing the difference between the mean running distance on the reference date (30 weeks of age) and the mean running distance in each test are shown in FIGS. 15 and 16. […] In FIG. 16, the sum of the absolute difference in mean running distance relative to the reference date in the SV group and the absolute difference in mean running distance relative to the reference date in the PBS group is shown as the SV treatment effect.
The change over time in the mean maximum speed in each group is shown in FIG. 17, and graphs showing the difference between the mean maximum speed on the reference date and the mean maximum speed on each test date are shown in FIGS. 18 and 19. […] In FIG. 19, the sum of the absolute difference in mean running distance relative to the reference date in the SV group and the absolute difference in mean running distance relative to the reference date in the PBS group is shown as the SV treatment effect. The treatment effect of more than 0.15 m/sec was confirmed at 34 and 39-41 weeks.

Substance: SVVYGLR [SV peptide, peptide consisting of 7 amino acids (SVVYGLR]
- number of collisions during treadmill running [1]: significant suppression of the increase in the number of collisions compared to the control group
- number of collisions during treadmill running ([2]; 12 hours after local injection): significantly reduced
- number of collisions during treadmill running ([2]; 24 hours after local injection): significantly reduced
- number of collisions during treadmill running ([2]; 72 hours after local injection): significantly reduced
- mean running distance compared to the reference date ([3]; SV group (training and SV peptide), during the measurement period, reference date 30 weeks): increased compared to that at the reference date
- rate of change of the mean running distance ([3]; SV group (training performed and SV peptide injected, 1 μg/ml or 20 ng/ml, 2 times/W), mean running distance at 30 weeks (reference date) = 100%, FIG. 5): about 130%
- mean running distance over time ([3]; SVN group: SV peptide at same site and dose without training on the treadmill, not shown in the figure): decreased over time
- rate of change in mean running distance ([3]; SVN group: SV peptide without training on the treadmill, since the reference date (30 weeks = 100%)): ≤ 100%
- mean workload [4]: higher workload relative to the PBS group
- SV treatment effect (sum of absolute differences relative to the reference date of SV group and PBS group) ([5]; FIG. 19, at 34 and 39-41 weeks, SV peptide 20 μg/ml once every 4 weeks plus training): more than 0.15 m/sec
- mean maximum speed ([5]; SV group, 20 μg/ml once every 4 weeks plus training, at 41 weeks of age vs 30 weeks of age): same mean maximum speed at 41 weeks of age as at 30 weeks of age
- decrease in the mean maximum speed during the test period ([5]; SV group, 20 μg/ml once every 4 weeks plus training, compared to the PBS group): able to suppress the decrease in the mean maximum speed
- mean speed (mean maximum speed) ([5]; SV group, 20 μg/ml once every 4 weeks plus training, test from 31 to 36 weeks of age, FIG. 17): continuous increase
- mean running distance ([5]; SV group, SV peptide 20 μg/ml once every 4 weeks plus training, at 41 weeks of age vs 30 weeks of age): exceeded that of 30 weeks of age
- mean running distance ([5]; SV group, SV peptide 20 μg/ml once every 4 weeks plus training, from 31 to 36 weeks of age, FIGS. 14-16): increased significantly
